Test results: patent publication US20130045952A1, “ABA Receptor Agonists for Increased Plant Stress Resistance” (Van Andel Research Institute, priority 2011, published 2013)

Legend:
Assay type in all cases: biochemical
His6-PYR1 / biotin-ABI2 = target: T1, His6-PYR1 / biotin-ABI2 (Arabidopsis thaliana, UniProt O49686); experiment: AlphaScreen dose response, PYR1-ABI2 interaction; settings: 100 nM His6-PYR1, 100 nM biotin-PP2C, 0-100 μM agonist; from dose response curves
T1 construct: made in house; host or cells: E. coli (stated for the PP2Cs; not expressly for PYR1)
T1 sequence (O49686 1-191): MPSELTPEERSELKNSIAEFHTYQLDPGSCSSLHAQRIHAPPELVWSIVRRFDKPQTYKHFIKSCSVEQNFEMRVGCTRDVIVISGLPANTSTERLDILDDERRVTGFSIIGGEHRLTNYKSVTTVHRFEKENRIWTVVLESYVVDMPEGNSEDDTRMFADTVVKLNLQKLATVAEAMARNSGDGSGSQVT
T1 sequence (O04719 101-423 partner limits assumed): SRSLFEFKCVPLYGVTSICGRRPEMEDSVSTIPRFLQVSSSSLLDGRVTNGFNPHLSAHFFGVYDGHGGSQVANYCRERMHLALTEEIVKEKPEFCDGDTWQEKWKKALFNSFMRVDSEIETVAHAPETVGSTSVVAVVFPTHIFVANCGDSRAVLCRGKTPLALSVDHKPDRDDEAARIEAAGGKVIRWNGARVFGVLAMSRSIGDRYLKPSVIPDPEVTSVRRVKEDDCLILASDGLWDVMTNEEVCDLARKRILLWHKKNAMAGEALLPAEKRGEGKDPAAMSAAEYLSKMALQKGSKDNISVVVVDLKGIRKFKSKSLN
Procedure: (§1) Interactions between PYR/PYL and PP2Cs were assessed by luminescence-proximity AlphaScreen technology (Perkin Elmer). Briefly, biotinylated PP2Cs were attached to streptavidin-coated donor beads, and H6-tagged PYR/PYL receptors were attached to nickel-chelated acceptor beads. The donor and acceptor beads were brought into proximity by the interactions between PYR/PYLs and PP2Cs, which were measured with and without ligands. When excited by a laser beam of 680 nm, the donor beam emits singlet oxygen that activates thioxene derivatives in the acceptor beads, which releases photons of 520-620 nm as the binding signal. The experiments were conducted with 100 nM of PP2Cs and PYR/PYL proteins in the presence of 5 ug/ml donor and acceptor beads in a buffer of 50 mM MOPS, pH7.4, 50 mM NaF, […], and 0.1 mg/ml bovine serum albumin. The results were based on an average of three experiments with standard errors typically less than 10% of the measurements.
(§2) The results shown in Table 5b were calculated from the dose response curves of the dependence of the interaction between 100 nM His6-PYR1 and 100 nM biotin-PP2C on the presence of 0-100 μM agonists determined by AlphaScreen luminescence proximity assay. Key (EC50 in μM): ++++=<5.0 μM; +++=5-10 μM; ++=10-20 μM; and +=>20-60 μM.

His6-PYR1 / biotin-PP2C = target: T2, His6-PYR1 / biotin-PP2C (Arabidopsis thaliana, UniProt O49686); experiment: AlphaScreen luminescence proximity assay, PYR1-PP2C interaction; settings: 100 nM His6-PYR1, 100 nM biotin-PP2C, 100 μM agonist; normalized against a pyrabactin control
T2 construct: made in house; host or cells: E. coli is stated for PYL1, PYL2 and the PP2Cs, not expressly for PYR1
T2 sequence (O49686 1-191): T1 sequence (O49686 1-191)
Procedure: (§3) Mutant proteins were expressed as H6GST-fusion proteins and purified by glutathione sepharose chromatography. Protein-protein interactions were determined by luminescence proximity AlphaScreen assay. Biotinylated PP2C proteins for the luminescence proximity assay were generated by in vivo biotinylation of avitag-PP2C fusion proteins. PP2C phosphatase activity was measured by phosphate release from a SnRK2.6 phosphoprotein.
as §1
(§4) Values were determined in different experiments and normalized against a pyrabactin control. Blank spaces mean no experimental data is available. Key (photon counts (binding signal units) in Alphascreen luminescence proximity assay): “+++ is >75,000; ++ is 25,000−75,000; + is <25,000.

His6-PYR1 / biotin-HAB1 = target: T3, His6-PYR1 / biotin-HAB1 (Arabidopsis thaliana, UniProt O49686); experiment: AlphaScreen dose response, PYR1-HAB1 interaction; settings: 100 nM His6-PYR1, 100 nM biotin-PP2C, 0-100 μM agonist; from dose response curves
T3 construct: made in house; host or cells: E. coli (stated for the PP2Cs; not expressly for PYR1)
T3 sequence (O49686 1-191): T1 sequence (O49686 1-191)
T3 sequence (Q9CAJ0 172-511 partner limits assumed): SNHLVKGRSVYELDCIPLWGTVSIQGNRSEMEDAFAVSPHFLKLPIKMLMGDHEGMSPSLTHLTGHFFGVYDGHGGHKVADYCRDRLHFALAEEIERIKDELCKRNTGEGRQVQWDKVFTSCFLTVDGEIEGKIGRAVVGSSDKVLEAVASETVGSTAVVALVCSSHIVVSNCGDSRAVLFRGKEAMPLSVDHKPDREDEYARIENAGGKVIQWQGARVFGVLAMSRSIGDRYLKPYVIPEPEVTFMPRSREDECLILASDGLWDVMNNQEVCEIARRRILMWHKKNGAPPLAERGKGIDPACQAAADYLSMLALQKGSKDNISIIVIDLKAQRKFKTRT
Procedure: as §1, §2

ABI2 = target: T4, ABI2 (Arabidopsis thaliana, UniProt O04719+O49686); experiment: PP2C phosphatase activity assay, ABI2; settings: 200 nM PP2C; SnRK2.6 phosphopeptide substrate; None = 100
T4 construct: ABI1 (residues 117-434) and ABI2 (residues 101-423) were expressed as H6Sumo fusion proteins; H6Sumo (N); made in house; host or cells: E. coli BL21
T4 sequence (O04719 101-423 limits assumed): T1 sequence (O04719 101-423 partner limits assumed)
T4 sequence (O49686 1-191): T1 sequence (O49686 1-191)
Procedure: as §3
(§5) PP2Cs and PYR/PYL proteins were pre-incubated at the indicated concentrations in 50 mM imidazole, pH 7.2, 5 mM MgCl2, 0.1% β-mercaptoethanol and 0.5 mg/ml BSA for 30 min at room temperature. Reactions were started by addition of 100 μM of a phosphopeptide corresponding to amino acids 170-180 of SnRK2.6 (HSQPK^pSTVGTP). This peptide is phosphorylated at a single residue corresponding to Ser175 in SnRK2.6, whose phosphorylation is required for SnRK2.6 kinase activity^32. Phosphate release from ^pS175 from the phosphopeptide was determined by colorimetric assay (BioVision).

HAB1 = target: T5, HAB1 (Arabidopsis thaliana, UniProt O49686+Q9CAJ0); experiment: PP2C phosphatase activity assay, HAB1; settings: 200 nM PP2C; SnRK2.6 phosphopeptide substrate; None = 100
T5 construct: HAB1 (residues 172-511) were prepared as recombinant proteins in E. coli; H6GST or H6Sumo; made in house; host or cells: E. coli
T5 sequence (Q9CAJ0 172-511 limits assumed): T3 sequence (Q9CAJ0 172-511 partner limits assumed)
T5 sequence (O49686 1-191): T1 sequence (O49686 1-191)
Procedure: as §3, §5

His6-PYL2 / biotin-PP2C = target: T6, His6-PYL2 / biotin-PP2C (Arabidopsis thaliana, UniProt O80992); experiment: AlphaScreen luminescence proximity assay, PYL2-PP2C interaction; settings: 100 nM His6-PYL2, 100 nM biotin-PP2C, 100 μM agonist; normalized against a pyrabactin control
T6 construct: PYL2 (residues 14-188), and HAB1 (residues 172-511) were prepared as recombinant proteins in E. coli; made in house; host or cells: E. coli
T6 sequence (O80992 14-188): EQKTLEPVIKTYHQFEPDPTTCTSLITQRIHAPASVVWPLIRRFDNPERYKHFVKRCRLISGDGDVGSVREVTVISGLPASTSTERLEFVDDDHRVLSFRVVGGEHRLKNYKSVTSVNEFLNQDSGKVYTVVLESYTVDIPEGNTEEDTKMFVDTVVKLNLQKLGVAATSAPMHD
Procedure: as §3, §1, §4

His6-PYL3 / biotin-PP2C = target: T7, His6-PYL3 / biotin-PP2C (Arabidopsis thaliana, UniProt Q9SSM7); experiment: AlphaScreen luminescence proximity assay, PYL3-PP2C interaction; settings: 100 nM His6-PYL3, 100 nM biotin-PP2C, 100 μM agonist; normalized against a pyrabactin control
T7 construct: made in house; host or cells: not expressly stated for PYL3
T7 sequence (Q9SSM7 1-209): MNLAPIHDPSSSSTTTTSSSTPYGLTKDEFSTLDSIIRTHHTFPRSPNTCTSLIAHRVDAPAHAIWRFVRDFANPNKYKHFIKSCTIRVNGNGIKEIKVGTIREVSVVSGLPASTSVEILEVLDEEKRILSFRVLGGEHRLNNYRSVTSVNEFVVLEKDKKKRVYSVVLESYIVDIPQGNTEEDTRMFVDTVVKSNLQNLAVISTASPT
Procedure: as §3, §1, §4

ABI1 = target: T8, ABI1 (Arabidopsis thaliana, UniProt O49686+P49597); experiment: PP2C phosphatase activity assay, ABI1; settings: 200 nM PP2C; SnRK2.6 phosphopeptide substrate; None = 100
T8 construct: ABI1 (residues 117-434) and ABI2 (residues 101-423) were expressed as H6Sumo fusion proteins; H6Sumo (N); made in house; host or cells: E. coli BL21
T8 sequence (P49597 117-434 limits assumed): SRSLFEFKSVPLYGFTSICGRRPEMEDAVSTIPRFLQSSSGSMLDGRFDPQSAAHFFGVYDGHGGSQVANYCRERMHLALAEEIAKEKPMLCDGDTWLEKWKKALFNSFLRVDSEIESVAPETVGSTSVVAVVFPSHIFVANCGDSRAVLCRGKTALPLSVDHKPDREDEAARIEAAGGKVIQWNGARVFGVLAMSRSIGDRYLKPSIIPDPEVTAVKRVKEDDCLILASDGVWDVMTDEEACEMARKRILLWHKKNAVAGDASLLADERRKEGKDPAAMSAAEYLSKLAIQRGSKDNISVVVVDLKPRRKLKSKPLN
T8 sequence (O49686 1-191): T1 sequence (O49686 1-191)
Procedure: as §3, §5

His6-PYR1 / biotin-ABI1 = target: T9, His6-PYR1 / biotin-ABI1 (Arabidopsis thaliana, UniProt O49686); experiment: AlphaScreen dose response, PYR1-ABI1 interaction; settings: 100 nM His6-PYR1, 100 nM biotin-PP2C, 0-100 μM agonist; from dose response curves
T9 construct: made in house; host or cells: E. coli (stated for the PP2Cs; not expressly for PYR1)
T9 sequence (O49686 1-191): T1 sequence (O49686 1-191)
T9 sequence (P49597 117-434 partner limits assumed): T8 sequence (P49597 117-434 limits assumed)
Procedure: as §1, §2

PYL2 A93F = target: T10, PYL2 A93F (Arabidopsis thaliana, UniProt O80992, A93F); experiment: PP2C binding and phosphatase assays of mutant PYL2 A93F
T10 construct: PYL2 (residues 14-188), and HAB1 (residues 172-511) were prepared as recombinant proteins in E. coli; made in house; host or cells: E. coli (stated for PYL2 in general)
T10 sequence (O80992 14-188 A93F): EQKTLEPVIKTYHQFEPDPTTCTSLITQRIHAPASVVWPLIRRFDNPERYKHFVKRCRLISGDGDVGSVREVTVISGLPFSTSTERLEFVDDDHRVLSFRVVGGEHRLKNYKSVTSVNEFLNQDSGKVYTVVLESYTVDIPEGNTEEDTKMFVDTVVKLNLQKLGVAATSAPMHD
Source text: The closest distance between the pyridine ring of pyrabactin and the LPA gating residues is 4.8 Å-7.0 Å when the LPA loop assumes the ABA-bound closed conformation, but is 11-13 Å when the LPA gate is in open conformation. In contrast, the distance of the naphthalene double ring of pyrabactin or the cyclohexene ring of ABA to the three side chains of the LPA gate in the PYL1 structure is 3.4-4.6 Å, a range for strong Van der Waals interactions, thus helping to keep the LPA gate in the closed conformation. […] To validate this hypothesis, we changed the alanine in the LPA loop to a larger residue. […] As expected from structural modeling, replacement of the gate residue A93 with the bulky phenylalanine ring also abrogated ABA to promote PYL2 activation.
as §3
Site-directed mutagenesis was carried out using the QuickChange method (Stratagene). Mutations and all plasmid constructs were confirmed by sequencing.

Compound | EC50 (His6-PYR1 / biotin-ABI2) [µM] | Stimulation of the interaction between PYR1 and PP2C (binding signal) (His6-PYR1 / biotin-PP2C) | EC50 (His6-PYR1 / biotin-HAB1) [µM] | % Phosphatase Activity ABI2 (ABI2) [%] | % Phosphatase Activity HAB1 (HAB1) [%] | Stimulation of the interaction between PYL2 and PP2C (binding signal) (His6-PYL2 / biotin-PP2C) | Stimulation of the interaction between PYL3 and PP2C (binding signal) (His6-PYL3 / biotin-PP2C) | % Phosphatase Activity ABI1 (ABI1) [%] | EC50 (His6-PYR1 / biotin-ABI1) [µM] | Activation of mutant PYL2 A93F receptor (PYL2 A93F)
CSCCCC(NS(=O)(=O)c1ccc(Br)c2ccccc12)C(=O)O (stereo not shown) [Compound 3] | < 5 | ++ (++ is 25,000−75,000) | < 5 | 7.0 ± 0.3 | 17.5 ± 0.6 | + (+ is <25,000) | +++ (+++ is >75,000) | 7.7 ± 4.3 | < 5 | 
(+)-Abscisic Acid |  |  |  |  |  |  |  |  |  | abrogated
